“And” between values parts separate entries of the source, which are not always exact repeats. Equal entries are not always repeated. Where two headings read alike, the source gives them in different places.
Tests used:
MCF-7 [1] = details: for anti-proliferative activity category: MCF-7, in words; for IC50: human
MCF-7 [2] = assay: cells; details: Homo sapiens, MCF7, 24 h, read-out: In vitro cytotoxicity IC50 (mean ± SD) MCF-7
EGFR TK enzyme = EGFR TK enzyme (Homo sapiens, UniProt P00533); assay: biochemical; details: EGFR IC50 (mean ± SD), ATP 1.65 μM, 30 min, room temperature
Chain of EGFR TK enzyme (P00533 25-1210): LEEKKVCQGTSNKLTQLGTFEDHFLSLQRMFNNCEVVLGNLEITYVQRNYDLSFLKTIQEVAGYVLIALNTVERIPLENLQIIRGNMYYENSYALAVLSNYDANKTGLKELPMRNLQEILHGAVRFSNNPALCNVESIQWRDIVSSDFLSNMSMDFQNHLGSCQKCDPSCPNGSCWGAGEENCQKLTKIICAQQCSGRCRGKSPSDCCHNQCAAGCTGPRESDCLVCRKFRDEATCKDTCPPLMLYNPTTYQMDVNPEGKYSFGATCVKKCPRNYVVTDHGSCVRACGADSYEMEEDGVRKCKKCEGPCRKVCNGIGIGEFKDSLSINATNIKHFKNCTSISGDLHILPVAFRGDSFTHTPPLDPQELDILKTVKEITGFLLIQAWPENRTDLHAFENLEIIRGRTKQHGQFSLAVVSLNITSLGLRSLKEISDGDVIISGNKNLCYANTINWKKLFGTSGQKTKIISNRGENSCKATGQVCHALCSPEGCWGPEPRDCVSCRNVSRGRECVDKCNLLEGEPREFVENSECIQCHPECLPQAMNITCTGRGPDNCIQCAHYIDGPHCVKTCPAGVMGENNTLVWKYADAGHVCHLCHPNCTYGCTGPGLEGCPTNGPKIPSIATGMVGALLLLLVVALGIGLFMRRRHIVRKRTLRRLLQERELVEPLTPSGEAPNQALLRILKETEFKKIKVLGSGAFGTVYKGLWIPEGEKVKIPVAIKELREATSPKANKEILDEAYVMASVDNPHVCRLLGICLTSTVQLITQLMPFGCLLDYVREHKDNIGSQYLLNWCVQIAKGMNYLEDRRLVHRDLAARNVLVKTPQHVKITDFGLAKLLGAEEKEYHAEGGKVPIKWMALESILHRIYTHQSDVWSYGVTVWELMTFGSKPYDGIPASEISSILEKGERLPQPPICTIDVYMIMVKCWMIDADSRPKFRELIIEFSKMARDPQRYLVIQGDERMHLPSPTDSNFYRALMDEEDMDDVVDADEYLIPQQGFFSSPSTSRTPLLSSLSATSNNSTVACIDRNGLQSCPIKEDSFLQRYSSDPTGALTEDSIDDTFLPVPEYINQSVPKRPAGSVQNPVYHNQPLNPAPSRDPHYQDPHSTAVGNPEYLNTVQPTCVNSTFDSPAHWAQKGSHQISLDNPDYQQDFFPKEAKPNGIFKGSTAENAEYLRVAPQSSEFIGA

Compound | IC50 (EGFR TK enzyme) | IC50 (MCF-7 [1]) | anti-proliferative activity category (MCF-7 [1]) | IC50 (MCF-7 [2])
Nc1cc(N2C(=O)c3ccccc3C2=O)nc(SCC(=O)NN=Cc2cccc([N+](=O)[O-])c2)n1 [6a, 2-((4-Amino-6-(1,3-dioxoisoindolin-2-yl)pyrimidin-2-yl)thio)-N′-(3-nitrobenzylidene)acetohydrazide] | – | – | lowest anti-proliferative activity | 62 ± 3.3 µM
Nc1cc(N2C(=O)c3ccccc3C2=O)nc(SCC(=O)NN=Cc2ccc([N+](=O)[O-])cc2)n1 [6b, 2-((4-Amino-6-(1,3-dioxoisoindolin-2-yl)pyrimidin-2-yl)thio)-N′-(4-nitrobenzylidene)acetohydrazide] | – | – | moderate activity | 48.4 ± 2.8 µM
Nc1cc(N2C(=O)c3ccccc3C2=O)nc(SCC(=O)NN=Cc2ccc(Cl)cc2)n1 [6c, 2-((4-Amino-6-(1,3-dioxoisoindolin-2-yl)pyrimidin-2-yl)thio)-N′-(4-chlorobenzylidene)acetohydrazide] | 0.9 µM and 0.88 µM | 31.8 ± 2 µM | moderate activity | 37.7 ± 3.6 µM
Nc1cc(N2C(=O)c3ccccc3C2=O)nc(SCC(=O)NN=Cc2ccc(O)cc2)n1 [6e, 2-((4-Amino-6-(1,3-dioxoisoindolin-2-yl)pyrimidin-2-yl)thio)-N′-(4-hydroxybenzylidene)acetohydrazide] | – | – | lowest anti-proliferative activity | 75.4 ± 3.7 µM
COc1ccc(C=NNC(=O)CSc2nc(N)cc(N3C(=O)c4ccccc4C3=O)n2)cc1OC [6g, 2-((4-Amino-6-(1,3-dioxoisoindolin-2-yl)pyrimidin-2-yl)thio)-N′-(3,4-dimethoxy-benzylidene)acetohydrazide] | – | – | moderate activity | 19.6 ± 1.5 µM
O=C1CCC(N2C(=O)c3ccccc3C2=O)C(=O)N1 (stereo not shown) [Thalidomide, reference compound] | – | – | – | 13.4 ± 0.5 µM

Further lines, with some results ahead:

IC50 (EGFR TK enzyme) | IC50 (MCF-7 [1]) | Compound | anti-proliferative activity category (MCF-7 [1]) | IC50 (MCF-7 [2])
4.6 ± 0.11 µM | – | CNC(c1ccccc1)c1c(N)[nH]c(=O)[nH]c1=O (stereo not shown) [10a, 6-Amino-5-((methylamino)(phenyl)methyl)pyrimidine-2,4(1H,3H)-dione] | – | 8.6 ± 0.7 µM
0.65 ± 0.02 µM | 37.7 ± 2.4 µM | CCNC(c1ccccc1)c1c(N)[nH]c(=O)[nH]c1=O (stereo not shown) [10b, 6-Amino-5-((ethylamino)(phenyl)methyl)pyrimidine-2,4(1H,3H)-dione] | moderate activity | 31.8 ± 2 µM
0.99 ± 0.03 µM | – | CCCCNC(c1ccccc1)c1c(N)[nH]c(=O)[nH]c1=O (stereo not shown) [10c, 6-Amino-5-((butylamino)(phenyl)methyl)pyrimidine-2,4(1H,3H)-dione] | high anti-proliferative activity | 7.6 ± 0.5 µM
– | 14.2 ± 1.2 µM | CN(C)C(c1ccccc1)c1c(N)[nH]c(=O)[nH]c1=O (stereo not shown) [10d, 6-Amino-5-((dimethylamino)(phenyl)methyl)pyrimidine-2,4(1H,3H)-dione] | high anti-proliferative activity | 8.6 ± 0.7 µM

Reference: article PMC12498222 (RSC Advances, 2025)
